Key:
[1] = Peptide stability control, medium with no cells (Example 4); type: in vitro ADME; conditions: media only (no cells), possible adherence to plastic
Procedure: HEK293 (passage 24) or Ea.hy926 (passage 37) were seeded into tissue-culture-grade 96-well plates at a density of 20,000 cells/well. After 24 hr, cells were washed with PBS and replaced with Opti-MEM reduced serum media containing SEQ ID NO:1 or SEQ ID NO:2 (9 μM). Aliquots of equal volume were taken at T=0 and 60 min. SEQ ID NO:2 was added to control wells having media (no cells) only. Samples were immediately acidified in 0.1% TFA, snap frozen in dry ice and stored in −80° C. until analysed by LCMS.
Samples were analyzed by LC-MS/MS on a Shimadzu Nexera uHPLC (Japan) coupled to a Triple Tof 5600 mass spectrometer (ABSCIEX, Canada) equipped with a duo electrospray ion source. One μL of each extract was injected onto a 2.1 mm×100 mm Zorbax C18 1.8 um column (Agilent) at 200 μL/min. Linear gradients of 1-50% solvent B over 7 min at 200 uL/min flow rate, followed by a steeper gradient from 50% to 98% solvent B in 1 min were used for peptide elution. Solvent B was held at 98% for 3 min for washing the column and returned to 1% solvent B for equilibration prior to the next sample injection. […] SEQ ID NO:1 and SEQ ID NO:2 were quantified using the […] doubly charged molecular ion from m/z 510.270 to 510.325. The data was acquired using Analyst TF 1.6 and quantification was carried out using MultiQuant 2.1.1 software (ABSCIEX, Canada).

ECE1 = target: T1, ECE1 (Homo sapiens, UniProt P42892); experiment: QFS assay of Aβ-degrading enzymes: ECE1 (Example 6); type: biochemical
T1 construct: purchased R & D systems 1784-ZN-010
T1 sequence (P42892 1-770): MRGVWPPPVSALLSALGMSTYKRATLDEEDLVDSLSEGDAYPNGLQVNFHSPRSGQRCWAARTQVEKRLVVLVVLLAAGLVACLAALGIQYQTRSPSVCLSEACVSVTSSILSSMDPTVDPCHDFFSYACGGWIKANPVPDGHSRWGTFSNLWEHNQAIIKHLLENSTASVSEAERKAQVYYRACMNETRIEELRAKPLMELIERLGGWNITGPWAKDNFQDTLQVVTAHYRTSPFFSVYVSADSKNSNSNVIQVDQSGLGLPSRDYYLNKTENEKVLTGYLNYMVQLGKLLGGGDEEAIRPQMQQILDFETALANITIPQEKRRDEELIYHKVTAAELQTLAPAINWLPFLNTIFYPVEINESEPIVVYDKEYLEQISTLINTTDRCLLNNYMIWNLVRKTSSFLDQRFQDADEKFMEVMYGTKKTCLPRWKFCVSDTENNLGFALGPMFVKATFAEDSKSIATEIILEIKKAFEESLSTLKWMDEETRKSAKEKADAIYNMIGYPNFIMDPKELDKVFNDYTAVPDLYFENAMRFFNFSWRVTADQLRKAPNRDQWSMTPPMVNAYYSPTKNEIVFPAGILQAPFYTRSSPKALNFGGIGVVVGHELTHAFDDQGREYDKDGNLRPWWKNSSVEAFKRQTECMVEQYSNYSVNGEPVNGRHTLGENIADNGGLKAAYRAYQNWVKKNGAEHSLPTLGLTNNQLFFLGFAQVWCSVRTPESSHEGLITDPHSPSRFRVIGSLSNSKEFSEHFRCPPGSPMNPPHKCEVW
Procedure: Plate reader-based enzyme assays were performed using a quenched fluorescent substrate (QFS) in a 96-well format using a SpectraMAX M4 Microplate reader (Molecular Devices). The increase in fluorescence following addition of QFS (40 μM) was taken as evidence of enzyme activity. Fluorescence was monitored over 2 h at 37° C. using κEx=320 nm and λEm=405 nm. Assays were conducted in black 96-well plates. Specific enzyme activity was expressed as a rate of substrate cleavage calculated using a standard curve of 7-methoxy-coumarin-4-acetic acid.
In all plate reader-based enzyme assays using QFS, the reaction rate (μmol of substrate cleaved/min) was calculated using linear regression analysis (GraphPad Prism software version 8.01). The reaction rates calculated were used to generate the enzyme kinetic parameters Vmax and Km through non-linear regression analysis (GraphPad Prism software, version 8.01; Michaelis-Menten equation). Where indicated, enzyme activity in the presence of peptide was expressed as a % of the enzyme alone. Data were expressed as mean±SEM and statistical significance was determined using t-tests or one-way ANOVAs followed by Tukey's post-hoc test. P<0.05 was considered as statistically significant. […]
SEQ ID NO:2 was assessed in a QFS assay against enzymes NEP, ECE1, ECE2, ACE1, ACE2, IDE and MMP-2 using the method in Example 2 and the following procedure. […]

H-SLFELGKMIL-NH2 [SEQ ID NO:2, H2N-SLFELGKMIL-NH2]
amount remaining in the medium with no cells after 60 min [1]: 63%±14%
ECE1 activity compared with respective enzyme alone (ECE1; peptide 2 μM (FIG. 2c)): did not increase
ECE1 activity, concentration dependence (ECE1; peptide 0.9-26 μM): did not affect

Source: US20240002441A1, “PEPTIDES AND USES THEREOF IN MODULATION OF AMYLOID-BETA PROTEIN DEGRADING PROTEASES” (priority 2020, published 2024)
